Results: patent publication US12037344B2, “NLRP3 modulators” (INNATE TUMOR IMMUNITY, INC., priority 2018, dated 2024)
Read-outs that look alike come from different tables or passages of the source.

What was measured:
TLR8 = molecular target: T1, TLR8 (Homo sapiens, UniProt Q9NR97); assay: In vitro human TLR8 binding reporter assay (HEK-Blue, NF-kB/AP1-inducible SEAP); format: cell-based; settings: read-out: TLR8 Agonist EC50
T1 construct: human HEK-Blue cells co-expressing a TLR7 or TLR8 gene
T1 sequence (Q9NR97 27-1041): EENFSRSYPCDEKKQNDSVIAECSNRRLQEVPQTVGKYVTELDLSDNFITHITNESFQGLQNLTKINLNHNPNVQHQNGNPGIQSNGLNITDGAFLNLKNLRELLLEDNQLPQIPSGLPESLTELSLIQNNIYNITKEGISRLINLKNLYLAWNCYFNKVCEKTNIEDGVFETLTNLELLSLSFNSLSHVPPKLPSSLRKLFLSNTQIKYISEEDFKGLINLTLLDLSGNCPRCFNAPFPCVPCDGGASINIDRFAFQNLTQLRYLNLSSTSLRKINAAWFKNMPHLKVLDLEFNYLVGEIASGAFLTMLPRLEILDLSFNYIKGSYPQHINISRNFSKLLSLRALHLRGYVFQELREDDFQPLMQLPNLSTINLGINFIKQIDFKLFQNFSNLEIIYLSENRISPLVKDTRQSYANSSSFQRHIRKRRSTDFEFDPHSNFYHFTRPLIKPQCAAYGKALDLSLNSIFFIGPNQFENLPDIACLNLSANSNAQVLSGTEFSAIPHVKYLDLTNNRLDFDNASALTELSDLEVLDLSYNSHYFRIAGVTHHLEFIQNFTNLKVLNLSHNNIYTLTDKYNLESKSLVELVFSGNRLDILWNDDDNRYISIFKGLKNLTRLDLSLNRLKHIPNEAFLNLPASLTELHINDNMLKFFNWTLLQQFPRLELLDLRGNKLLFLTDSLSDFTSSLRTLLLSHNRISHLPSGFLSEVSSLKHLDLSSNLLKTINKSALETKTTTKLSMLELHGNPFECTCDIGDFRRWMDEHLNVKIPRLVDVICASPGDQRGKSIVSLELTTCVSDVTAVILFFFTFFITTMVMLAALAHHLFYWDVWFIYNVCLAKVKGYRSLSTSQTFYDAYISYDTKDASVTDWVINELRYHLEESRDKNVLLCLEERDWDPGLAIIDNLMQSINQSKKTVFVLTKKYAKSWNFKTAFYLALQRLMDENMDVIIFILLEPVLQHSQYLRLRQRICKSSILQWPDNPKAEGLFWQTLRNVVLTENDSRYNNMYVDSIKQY
Summary of the method: (§1)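 HEK-Blue cells expressing human TLR7 or TLR8 with NF-kB/AP1-inducible SEAP reporter, plated 24 h, then compound-treated 18 h at 37° C, 5% CO2. EC50 normalized to 100% Ymax set by 50 μM reference standard.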

TLR7 = molecular target: T2, TLR7 (Homo sapiens, UniProt Q9NYK1); assay: In vitro human TLR7 binding reporter assay (HEK-Blue, NF-kB/AP1-inducible SEAP); format: cell-based; settings: read-out: TLR7 Agonist EC50
T2 construct: human HEK-Blue cells co-expressing a TLR7 or TLR8 gene
T2 sequence (Q9NYK1 27-1049): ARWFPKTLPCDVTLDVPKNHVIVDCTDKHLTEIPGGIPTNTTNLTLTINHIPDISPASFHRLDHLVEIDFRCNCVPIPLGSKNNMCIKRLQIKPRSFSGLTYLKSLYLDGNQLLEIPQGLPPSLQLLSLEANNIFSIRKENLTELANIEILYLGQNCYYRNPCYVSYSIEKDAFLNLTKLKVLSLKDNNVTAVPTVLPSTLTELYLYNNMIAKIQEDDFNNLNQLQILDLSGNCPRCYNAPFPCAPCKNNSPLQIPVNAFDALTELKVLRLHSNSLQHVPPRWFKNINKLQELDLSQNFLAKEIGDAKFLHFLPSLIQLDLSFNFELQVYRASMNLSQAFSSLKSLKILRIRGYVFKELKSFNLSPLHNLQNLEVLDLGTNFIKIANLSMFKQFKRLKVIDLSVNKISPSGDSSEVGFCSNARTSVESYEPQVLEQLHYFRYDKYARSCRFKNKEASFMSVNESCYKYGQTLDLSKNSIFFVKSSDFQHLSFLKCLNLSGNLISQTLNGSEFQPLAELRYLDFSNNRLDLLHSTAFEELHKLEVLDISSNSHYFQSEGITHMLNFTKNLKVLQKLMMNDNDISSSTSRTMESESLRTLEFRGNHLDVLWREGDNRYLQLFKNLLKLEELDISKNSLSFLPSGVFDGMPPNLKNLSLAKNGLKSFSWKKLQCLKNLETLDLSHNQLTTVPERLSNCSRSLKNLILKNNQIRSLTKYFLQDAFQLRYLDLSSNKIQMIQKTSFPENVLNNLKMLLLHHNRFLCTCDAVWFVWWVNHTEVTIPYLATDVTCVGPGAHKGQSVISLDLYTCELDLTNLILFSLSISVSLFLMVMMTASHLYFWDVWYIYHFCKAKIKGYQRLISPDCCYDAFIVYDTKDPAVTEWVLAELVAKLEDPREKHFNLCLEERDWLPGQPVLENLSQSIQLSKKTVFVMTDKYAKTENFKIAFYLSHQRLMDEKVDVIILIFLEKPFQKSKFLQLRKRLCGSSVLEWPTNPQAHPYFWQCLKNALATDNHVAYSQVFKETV
Summary of the method: as §1

THP-1 cells = assay: Measurement of IL-1β production, hTRF protocol (second alternative procedure), THP-1 cells; format: cell-based, human; settings: read-out: NLRP3 hILIB EC50
Summary of the method: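 Compounds, dilution series starting at a final 10 μM, were incubated 2 hours at 37° C with PMA-differentiated THP-1 cells (50 ng/ml overnight; 50,000 cells/well, 2% FBS RPMI). Released IL-1β quantified in supernatant by hTRF kit with 1:40 antibody dilution, 4° C overnight, 665/615 nm ratio.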

[1] = Homo sapiens, THP-1, IL-1β production, human cells
[2] = Homo sapiens, THP-1, IL-1β production, human

| SMILES | EC50 (TLR8; activity range) [µM] | EC50 (TLR7; activity range) [µM] | EC50 (THP-1 cells; [1]) [µM] | EC50 (TLR8; activity range class) [µM] | EC50 (TLR7; activity range class) [µM] | EC50 (THP-1 cells; [2]) [µM] | EC50 (THP-1 cells; IL-1β production, human) [µM] |
| --- | --- | --- | --- | --- | --- | --- | --- |
| Nc1nc2cc(-c3ccn[nH]3)ccc2c2[nH]c(CN3CCOCC3)cc12 [Example 411, 2-[(morpholin-4-yl)methyl]-7-(1H-pyrazol-5-yl)-1H-pyrrolo[3,2-c]quinolin-4-amine] | > 100 | > 100 | 0.64 |  |  |  |  |
| COC1CCN(C(=O)C(C)(C)Cn2cc3c(N)nc4cc(-c5ccn[nH]5)ccc4c3n2)CC1 [Example 610] | > 100 | > 100 | 4.41 |  |  |  |  |
| CS(=O)(=O)CCn1cc2c(N)nc3cc(-c4cc[nH]n4)ccc3c2n1 [Example 463] | > 100 | > 100 | 0.13 |  |  |  |  |
| Nc1nc2cc(-c3cc[nH]n3)ccc2c2[nH]c(CN3C[C@@H]4C[C@H]3CO4)cc12 [Example 471] | > 100 | > 100 | 0.75 |  |  |  |  |
| CC(C(=O)NCc1ccccn1)n1cc2c(N)nc3cc(-c4ccn[nH]4)ccc3c2n1 (stereo not drawn) [Example 563] | > 100 | > 100 | 9.21 |  |  |  |  |
| C[C@H](O)Cn1cc2c(N)nc3cc(-c4cc[nH]n4)ccc3c2n1 [Example 369] |  |  |  | > 100 | > 100 | 0.19 |  |
| N#CCC1(Cn2cc3c(N)nc4cc(-c5cc[nH]n5)ccc4c3n2)CC1 [Example 466] | > 100 | > 100 | 0.61 |  |  |  |  |
| Nc1nc2cc(-c3cc[nH]n3)ccc2c2n[nH]cc12 [Example 457, 7-(1H-pyrazol-3-yl)-2H-pyrazolo[4,3-c]quinolin-4-amine] | > 100 | > 100 | 0.16 |  |  |  |  |
| Nc1nc2cc(-c3cc[nH]n3)ccc2c2nn(C3COCC3O)cc12 (single isomer, unassigned) [Example 325] |  |  |  | > 100 | > 100 |  | 1.49 |
| COCCn1cc2c(N)nc3cc(-c4cccs4)ccc3c2n1 [Example 248, 2-(2-methoxyethyl)-7-(thiophen-2-yl)-2H-pyrazolo[4,3-c]quinolin-4-amine] |  |  |  | > 100 | > 100 | 0.65 |  |
| Nc1nc2cc(-c3cc[nH]n3)ccc2c2cn(CCCOc3cccc(F)c3)nc12 [Example 5] |  |  |  | > 100 | > 100 | 0.35 |  |
| CC(C)(CO)NC(=O)C(C)(C)n1cc2c(N)nc3cc(-c4cc[nH]n4)ccc3c2n1 [Example 522] | > 100 | > 100 | 12.2 |  |  |  |  |
| Nc1nc2cc(-c3cc[nH]n3)ccc2c2nn(CCN3CCCC3)cc12 [Example 304] |  |  |  | > 100 | > 100 | 0.66 |  |
| Nc1nc2cc(-c3cc[nH]n3)ccc2c2cn(CCNC(=O)c3cccc(F)n3)nc12 [Example 55] |  |  |  | 20 to 100 | 20 to 100 | 0.39 |  |
| Nc1nc2cc(-c3cc[nH]n3)ccc2c2cn(CCNC(=O)C3CCOCC3)nc12 [Example 47] |  |  |  | > 100 | > 100 | 23.3 |  |
| Nc1nc2cc(-c3cc[nH]n3)ccc2c2cn(CCNC(=O)c3ccc(Cl)cn3)nc12 [Example 72] |  |  |  | 20 to 100 | 20 to 100 | 0.14 |  |
| Nc1nc2cc(-c3cc[nH]n3)ccc2c2nn(CCOCCO)cc12 [Example 309] |  |  |  | > 100 | > 100 | 0.75 |  |
| Nc1nc2cc(-c3cc[nH]n3)ccc2c2[nH]c(CN[C@@H]3CCOC3)cc12 [Example 422] | > 100 | > 100 | 0.14 |  |  |  |  |
| CC(C(=O)NCC1CCOCC1)n1cc2c(N)nc3cc(-c4ccn[nH]4)ccc3c2n1 (stereo not drawn) [Example 566] | > 100 | > 100 | 27.6 |  |  |  |  |
| CC(C)(Cn1cc2c(N)nc3cc(-c4ccn[nH]4)ccc3c2n1)C(=O)NCCO [Example 594] | > 100 | > 100 | 7.94 |  |  |  |  |
| N#Cc1ccc(C(=O)NCCn2cc3c(n2)c(N)nc2cc(-c4cc[nH]n4)ccc23)nc1 [Example 64] |  |  |  | > 100 | > 100 | 0.48 |  |
| COCCN(C)C(=O)Cn1cc2c(n1)c(N)nc1cc(-c3cc[nH]n3)ccc12 [Example 542] | > 100 | > 100 | 1.58 |  |  |  |  |
| Cc1ccc(C(=O)NCCn2cc3c(n2)c(N)nc2cc(-c4cc[nH]n4)ccc23)cc1 [Example 41] |  |  |  | > 100 | > 100 | 0.8 |  |
| Nc1nc2cc(-c3cc[nH]n3)ccc2c2c1cnn2CC1CCCO1 (stereo not drawn) [Example 230] |  |  |  | > 100 | > 100 | 0.87 |  |
| Nc1nc2cc(-n3cccn3)ccc2c2nn(CCc3c[nH]cn3)cc12 [Example 391] |  |  |  | > 100 | > 100 | 0.2 |  |
| Nc1nc2cc(-c3cc[nH]n3)ccc2c2nn(C3CCCC3O)cc12 (single isomer, unassigned) [Example 316] |  |  |  | > 100 | > 100 |  | 0.89 |
| Nc1nc2cc(-c3cc[nH]n3)ccc2c2nn(CCC(F)F)cc12 [Example 354] |  |  |  | > 100 | > 100 | 0.3 |  |
| Nc1nc2cc(-c3cc[nH]n3)ccc2c2[nH]c(CN[C@H]3CCOC3)c(Cl)c12 [Example 487] | > 100 | > 100 | 0.37 |  |  |  |  |
